Laboratory results taken from US20260035367A1 (Celgene Corporation, priority 2021, published 2026).
Where two headings read alike, the source gives them in different places. One block for each compound: values may come before it.

Assays:
[1] = tested on: IL-2 secretion by human effector memory T cells (TEM); test: Effector memory T cells IL-2 release assay (CD3/CD28 stimulation, HTRF IL-2 detection); format: cell-based; settings: Homo sapiens, T-cell, 24 h
Method: Test compound-mediated inhibition of NFκB signalling in T cells was assessed by quantification of the IL-2 secretion by human effector memory T cells (TEM) upon treatment and stimulation. Human TEM cells were isolated from buffy coats of healthy donors obtained from the French blood bank.
Finally, 10 doses of test compound, originally prepared in DMSO by serial semi-log step dilution, were also added to cells in triplicate wells. Final DMSO concentration in wells was 0.1% in a total volume of 100 μL complete medium. Plates were incubated for 24 h at 37° C. in 5% CO2 atmosphere. After incubation, cell suspensions were centrifuged at 400×g and culture supernatants were recovered and stored at −80° C. […] IL-2 levels were determined in cell supernatants using an HTRF human IL-2 detection kit (Cisbio, cat #62HIL02PEH).

[2] = molecular target: T1, Recombinant human PKC-delta (His-tagged 345-676) (Homo sapiens, UniProt Q05655); test: PKC-delta inhibition assay (HTRF KinEASE kit); format: biochemical; settings: ratio, PKC-theta vs PKC-delta HTRF; for PKC-theta/PKC-delta selectivity (binned): binned A to G
T1 construct: PKC-delta (His-tagged 345-676); His

[3] = molecular target: T2, Recombinant human PKC-theta (His-tagged 362-706) (Homo sapiens, UniProt Q04759); test: PKC-theta inhibition assay (HTRF KinEASE kit); format: biochemical; settings: ATP 6.5 μM, STK substrate 525 nM
T2 construct: Recombinant human PKC-theta (His-tagged 362-706); His
Method: PKC-theta and PKC-delta biochemical activities were measured using the PKC-theta HTRF KinEASEkit kit, according to manufacturer's instructions (Cisbio, catalogue number 61ST1PEJ). Briefly, the kinase buffer component of the kit was supplemented with 10 mM MgCl2, 1 mM DTT and 0.1% Tween 20. […] The streptavidin_XL665 and STK antibody-cryptate detection reagents were mixed according to the manufacturer's instructions. Test compounds were diluted in DMSO in a series of 10 semi-log step doses; 10 nL of each compound dose were dispensed in 384 well plates. […] The reaction was started by addition of the substrate and ATP and incubated at 25° C. for 30 minutes or 20 minutes for the PKC-theta and PKC-delta assays, respectively. The detection reagents were added, and the plate was incubated in the dark for 2 hours. […] The ratio of acceptor and donor emission signals was calculated for each well. Percent inhibition values were calculated from the HTRF ratios at different doses and fitted to a 4-parameter logistic curve to determine IC50 values (see Table 2).

[4] = binned A to G, read-out: PKC-theta IL2 pIC50 (binned) (converted)
[5] = read-out: PKC-theta IL2 pIC50 (converted)
[6] = binned A to H, read-out: PKC-theta HTRF pIC50 (binned) (converted)
[7] = read-out: PKC-theta HTRF pIC50 (converted)

T1 sequence (Q05655 345-676): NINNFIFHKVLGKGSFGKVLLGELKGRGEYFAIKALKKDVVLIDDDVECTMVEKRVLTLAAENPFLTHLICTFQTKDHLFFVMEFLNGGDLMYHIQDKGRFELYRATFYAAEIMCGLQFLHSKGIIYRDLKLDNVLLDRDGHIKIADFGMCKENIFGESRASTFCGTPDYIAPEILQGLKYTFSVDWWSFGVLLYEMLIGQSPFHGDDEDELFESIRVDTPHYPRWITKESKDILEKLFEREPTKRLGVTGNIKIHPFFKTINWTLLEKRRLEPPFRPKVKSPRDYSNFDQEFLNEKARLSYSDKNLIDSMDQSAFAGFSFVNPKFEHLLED
T2 sequence (Q04759 362-706): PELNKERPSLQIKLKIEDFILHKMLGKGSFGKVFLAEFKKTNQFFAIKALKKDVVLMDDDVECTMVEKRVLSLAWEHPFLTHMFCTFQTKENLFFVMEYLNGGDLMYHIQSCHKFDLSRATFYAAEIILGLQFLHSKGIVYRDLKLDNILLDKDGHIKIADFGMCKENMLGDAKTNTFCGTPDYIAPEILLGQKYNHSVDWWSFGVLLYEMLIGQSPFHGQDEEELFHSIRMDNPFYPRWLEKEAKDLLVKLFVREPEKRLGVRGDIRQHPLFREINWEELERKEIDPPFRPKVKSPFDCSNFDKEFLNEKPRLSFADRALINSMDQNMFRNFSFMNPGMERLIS

SMILES: O=c1[nH]c2nccc(-c3cccc(CN4CCNCC4)c3)c2[nH]1 [Example 20]
IC50 [1, 4]: > 1000 nM | IC50 [1, 5]: 10000 nM | PKC-theta/PKC-delta selectivity (binned) [2]: G (a ratio of 0 to 1) | IC50 [3, 6]: > 1000 nM | IC50 [3, 7]: 3980 nM

SMILES: O=c1[nH]c2nccc(-c3cccc(N4CCNCC4)c3)c2[nH]1 [Example 2]
IC50 [1, 4]: > 1000 nM | IC50 [1, 5]: 10000 nM | PKC-theta/PKC-delta selectivity [2]: 2 | PKC-theta/PKC-delta selectivity (binned) [2]: F (a ratio of between 1 and 5) | IC50 [3, 6]: 316 to 1000 nM | IC50 [3, 7]: 501 nM

IC50 [1, 4]: 100 to 316 nM | IC50 [1, 5]: 158 nM | PKC-theta/PKC-delta selectivity [2]: 31 | PKC-theta/PKC-delta selectivity (binned) [2]: B (a ratio of between 30 and 50) | IC50 [3, 6]: 3.16 to 10 nM | IC50 [3, 7]: 3.98 nM
SMILES: CC1(C)C(=O)Nc2nccc(-c3cc(C(F)(F)F)cc(N4CCN[C@H]5COC[C@H]54)n3)c21 [Example 192]

SMILES: CCC1(C)C(=O)Nc2nccc(-c3cc(C(F)(F)F)cc(N4CCNC[C@H]4C)n3)c21 (some centres unmarked) [Example 144]
IC50 [1, 4]: 10 to 31.6 nM | IC50 [1, 5]: 25.1 nM | PKC-theta/PKC-delta selectivity [2]: 23 | PKC-theta/PKC-delta selectivity (binned) [2]: C (a ratio of between 20 and 30) | IC50 [3, 6]: 1 to 3.16 nM | IC50 [3, 7]: 1.58 nM

SMILES: CC1C(=O)Nc2ncnc(-c3cccc(N4CCNCC4)c3)c21 (centres unmarked) [Example 24]
IC50 [1, 4]: > 1000 nM | IC50 [1, 5]: 2000 nM | PKC-theta/PKC-delta selectivity [2]: 1 | PKC-theta/PKC-delta selectivity (binned) [2]: F (a ratio of between 1 and 5) | IC50 [3, 6]: 316 to 1000 nM | IC50 [3, 7]: 1000 nM

SMILES: C[C@@]1(O)C(=O)Nc2nccc(-c3cc(C(F)(F)F)cc(N4CCNC(CF)C4)n3)c21 (single isomer, unassigned) [Example 109]
IC50 [1, 4]: 316 to 1000 nM | IC50 [1, 5]: 794 nM | PKC-theta/PKC-delta selectivity [2]: 29 | PKC-theta/PKC-delta selectivity (binned) [2]: C (a ratio of between 20 and 30) | IC50 [3, 6]: 3.16 to 10 nM | IC50 [3, 7]: 3.98 nM

SMILES: CCC1(C)C(=O)Nc2nccc(-c3cc(Cl)cc(N4CCNC[C@H]4C)n3)c21 (some centres unmarked) [Example 146]
IC50 [1, 4]: 10 to 31.6 nM | IC50 [1, 5]: 25.1 nM | PKC-theta/PKC-delta selectivity [2]: 4 | PKC-theta/PKC-delta selectivity (binned) [2]: F (a ratio of between 1 and 5) | IC50 [3, 6]: 1 to 3.16 nM | IC50 [3, 7]: 2.51 nM

SMILES: CC1(C)C(=O)Nc2nccc(-c3cccc(N4CCNCC4)c3Cl)c21 [Example 48]
IC50 [1, 4]: > 1000 nM | IC50 [1, 5]: 10000 nM | PKC-theta/PKC-delta selectivity [2]: 1 | PKC-theta/PKC-delta selectivity (binned) [2]: G (a ratio of 0 to 1) | IC50 [3, 6]: > 1000 nM | IC50 [3, 7]: 1580 nM

SMILES: CC1(C)C(=O)Nc2nccc(-c3cc(C(F)(F)F)cc(N4CCCNCC4)n3)c21 [Example 175]
IC50 [1, 4]: 31.6 to 100 nM | IC50 [1, 5]: 63.1 nM | PKC-theta/PKC-delta selectivity [2]: 21 | PKC-theta/PKC-delta selectivity (binned) [2]: C (a ratio of between 20 and 30) | IC50 [3, 6]: 3.16 to 10 nM | IC50 [3, 7]: 5.01 nM

SMILES: C[C@H]1CN(c2cc(Cl)cc(-c3ccnc4c3C(C)(O)C(=O)N4)n2)CCN1 (some centres unmarked) [Example 208]
IC50 [1, 4]: 10 to 31.6 nM | IC50 [1, 5]: 20 nM | PKC-theta/PKC-delta selectivity [2]: 12 | PKC-theta/PKC-delta selectivity (binned) [2]: D (a ratio of between 10 and 20) | IC50 [3, 6]: 1 to 3.16 nM | IC50 [3, 7]: 2 nM

IC50 [1, 4]: 100 to 316 nM | IC50 [1, 5]: 126 nM | PKC-theta/PKC-delta selectivity [2]: 19 | PKC-theta/PKC-delta selectivity (binned) [2]: D (a ratio of between 10 and 20) | IC50 [3, 6]: 3.16 to 10 nM | IC50 [3, 7]: 7.94 nM
SMILES: CC[C@@]1(C)C(=O)Nc2nccc(-c3cc(C(F)(F)F)cc(N4CCN[C@@H](C)C4)n3)c21 (single isomer, unassigned) [Example 154]

SMILES: C[C@@H]1NCCN(c2cc(C(F)(F)F)cc(-c3ccnc4c3C(C)(C)C(=O)N4)n2)[C@@H]1C [Example 169]
IC50 [1, 4]: 31.6 to 100 nM | IC50 [1, 5]: 100 nM | PKC-theta/PKC-delta selectivity [2]: 16 | PKC-theta/PKC-delta selectivity (binned) [2]: D (a ratio of between 10 and 20) | IC50 [3, 6]: 3.16 to 10 nM | IC50 [3, 7]: 7.94 nM

SMILES: CC[C@H]1CN(c2cccc(-c3ccnc4c3C(C)(CC)C(=O)N4)n2)CCN1 (some centres unmarked) [Example 148]
IC50 [1, 4]: 100 to 316 nM | IC50 [1, 5]: 158 nM | PKC-theta/PKC-delta selectivity [2]: 3 | PKC-theta/PKC-delta selectivity (binned) [2]: F (a ratio of between 1 and 5) | IC50 [3, 6]: 10 to 31.6 nM | IC50 [3, 7]: 20 nM
